According to patent US20230067910A1, “NOVEL COMPOUNDS FOR THE DIAGNOSIS, TREATMENT AND PREVENTION OF DISEASES ASSOCIATED WITH THE AGGREGATION OF ALPHA-SYNUCLEIN” (MODAG GMBH, priority 2019, published 2023):

Biological target: T1, alpha-synuclein (sonicated fibrils) (Homo sapiens, UniProt P37840)
T1 construct: made in house; host or cells: E. coli
Experiment: Modified competition binding assay, protocol 3b, reference ligand [3H]-compound 2
Conditions: Table 5, reference ligand [3H]-compound 2 (1 nM)
Protocol: Alpha-synuclein and tau46 were purified from E. coli according to established protocols (Nuscher B, et al., J. Biol. Chem., 2004; 279(21):21966-75), Aβ1-42 was obtained from rPeptide, Watkinsville, Ga., USA. Fibrils were prepared by aggregation of recombinant protein via constant agitation. In detail, 70 μM of alpha-synuclein mixed with 100 mM NaCl in 50 mM Tris, pH 7.0+0.02% NaN3 were incubated at 1,400 rpm, 37° C. for 96 h. 10 μM of tau46 were incubated with 0.03 mg/ml heparin in 50 mM Tris, pH=7.0 at 1,000 rpm, 37° C. for 72 h. Aβ1-42 was solved in 20 mM NaPi, pH=8.0+0.2 mM EDTA+0.02% NaN3 (Deeg A A, et al., Biochim. Biophys. Acta, 2015; 1850(9): 1884-90; Goedert M, et al. Nature, 1996; 383(6600): 550-3).
For competition binding experiments, a fixed concentration of recombinant αSYN fibrils (sonicated, 15 nM/well) was incubated with 1 nM [^3H]-compound 1 or [3H]-compound 2 and decreasing concentrations of a serial dilution of non-labeled competitor (serial dilution 1:4 or 1:3.5 or 1:3 providing the concentration ranges of non-labeled competitor 1 μM-[…] 1 μM-4 nM or 1 μM-[…], respectively) in 30 mM Tris-HCl, 10% ethanol, 0.05% Tween20, pH 7.4 in a total volume of 200 μL/well. Plates were incubated for 4.5 hours at RT covered by removable sealing tape (PerkinElmer, Waltham, Mass., USA).
Filtration and readout were performed as described for saturation binding assays. [^3H]-labeled ligand binding [in CMP] was plotted against increasing competitor concentrations and data points were fitted using non-linear regression analysis to calculate the IC50 and Ki values (GraphPad Software, Inc., Version 7.03, La Jolla (Calif.), USA). In the competition binding assay with sonicated recombinant αSYN fibrils, the calculation of Ki values was done based on KD values of 0.6 nM and 0.2 nM for compound 1 and compound 2, respectively.
The fibril competition assay provides Ki values. Ki is a quantitative measure that represents the concentration of the non-radioactive tested compound (competitor ligand) required to replace 50% of a reference compound, in this case [H]-compound 1 (1 nM) or [H]-compound 2 (1 nM), which is bound to the target structures (1 nM), in our case recombinant alpha-synuclein and tau46 fibrils. This assay is suitable for a screening of non-radioactive ligands.

Ki | Compound
23 nM | 4-[5-(2,6-dichloropyridin-4-yl)-1H-pyrazol-3-yl]-N,N-dimethylaniline [Compound 42]
0.3 nM | [2H]C([2H])([2H])Nc1ccc(-c2cc(-c3ccnc(Br)c3)[nH]n2)cc1 [Compound 21, 4-[5-(2-bromopyridin-4-yl)-1H-pyrazol-3-yl]-N-(^2H3)methylaniline]
0.3 nM | CNc1ccc(-c2cc(-c3ccnc(Cl)c3)[nH]n2)cc1 [Compound 22, 4-[5-(2-chloropyridin-4-yl)-1H-pyrazol-3-yl]-N-methylaniline]
0.5 nM | CCNc1ccc(-c2cc(-c3ccnc(Br)c3)[nH]n2)cc1 [Compound 23, 4-[5-(2-bromopyridin-4-yl)-1H-pyrazol-3-yl]-N-ethylaniline]
0.8 nM | CNc1ccc(-c2cc(-c3ccnc(F)c3)[nH]n2)cc1 [Compound 24, 4-[5-(2-fluoropyridin-4-yl)-1H-pyrazol-3-yl]-N-methylaniline]
0.7 nM | FCCNc1ccc(-c2cc(-c3ccnc(Br)c3)[nH]n2)cc1 [Compound 25, 4-[5-(2-bromopyridin-4-yl)-1H-pyrazol-3-yl]-N-(2-fluoroethyl)aniline]
1 nM | CN1CCN(c2ccc(-c3cc(-c4ccnc(Br)c4)[nH]n3)cc2)CC1 [Compound 26, 1-{4-[5-(2-bromopyridin-4-yl)-1H-pyrazol-3-yl]phenyl}-4-methylpiperazine]
1.3 nM | Fc1cc(-c2cc(-c3ccc(N4CCOCC4)cc3)n[nH]2)ccn1 [Compound 27, 4-{4-[5-(2-fluoropyridin-4-yl)-1H-pyrazol-3-yl]phenyl}morpholine]
4.2 nM | Clc1c(-c2ccc3c(c2)OCO3)n[nH]c1-c1ccnc(Br)c1 [Compound 28, 4-[3-(1,3-benzodioxol-5-yl)-4-chloro-1H-pyrazol-5-yl]-2-bromopyridine]
6.3 nM | Brc1cc(-c2c[nH]c(-c3ccc4c(c3)OCO4)n2)ccn1 [Compound 29, 4-[2-(1,3-benzodioxol-5-yl)-1H-imidazol-4-yl]-2-bromopyridine]
12 nM | Brc1cc(-c2nc(-c3ccc4c(c3)OCO4)n[nH]2)ccn1 [Compound 30, 4-[3-(1,3-benzodioxol-5-yl)-1H-1,2,4-triazol-5-yl]-2-bromopyridine]
13 nM | CN(C)c1ccc(-c2c[nH]c(-c3ccnc(Br)c3)n2)cc1 [Compound 31, 4-[2-(2-bromopyridin-4-yl)-1H-imidazol-4-yl]-N,N-dimethylaniline]
33 nM | Brc1cc(-c2nc(-c3ccc4c(c3)OCO4)c[nH]2)ccn1 [Compound 33, 4-[4-(1,3-benzodioxol-5-yl)-1H-imidazol-2-yl]-2-bromopyridine]
41 nM | Brc1cccc(-c2cc(-c3cnc4c(c3)OCO4)n[nH]2)c1 [Compound 34, 6-[5-(3-bromophenyl)-1H-pyrazol-3-yl]-1,3-dioxolo[4,5-b]pyridine]
168 nM | Clc1cc(-c2nc(-c3ccc(N4CCCC4)cc3)c[nH]2)ccn1 [Compound 35, 2-chloro-4-{4-[4-(pyrrolidin-1-yl)phenyl]-1H-imidazol-2-yl}pyridine]
12 nM | CNc1ccc(-c2cc(-c3cncc(Cl)n3)[nH]n2)cc1 [Compound 36, 4-[5-(6-chloropyrazin-2-yl)-1H-pyrazol-3-yl]-N-methylaniline]
16 nM | CNc1ccc(-c2cc(-c3cc(Br)nc(Br)c3)[nH]n2)cc1 [Compound 37, 4-[5-(2,6-dibromopyridin-4-yl)-1H-pyrazol-3-yl]-N-methylaniline]

Ki | Compound
113 nM | CNc1ccc(-c2cc(-c3cc(C)nc(Br)c3)[nH]n2)cc1 [Compound 38, 4-[5-(2-bromo-6-methylpyridin-4-yl)-1H-pyrazol-3-yl]-N-methylaniline]
4.2 nM | CNc1ccc(-c2cc(-c3cnnc(Cl)c3)[nH]n2)cc1 [Compound 39, 4-[5-(6-chloropyridazin-4-yl)-1H-pyrazol-3-yl]-N-methylaniline]
3.9 nM | CNc1ccc(-c2cc(-c3ccnc(Cl)n3)[nH]n2)cc1 [Compound 40, 4-[5-(2-chloropyrimidin-4-yl)-1H-pyrazol-3-yl]-N-methylaniline]
14 nM | CNc1ccc(-c2cc(-c3cccc(Cl)n3)[nH]n2)cc1 [Compound 41, 4-[5-(6-chloropyridin-2-yl)-1H-pyrazol-3-yl]-N-methylaniline]
0.5 nM | CN(C)c1ccc(-c2cc(-c3cc(Cl)ncn3)[nH]n2)cc1 [Compound 43, 4-[5-(6-chloropyrimidin-4-yl)-1H-pyrazol-3-yl]-N,N-dimethylaniline]
0.6 nM | CN(C)c1ccc(-c2nc(-c3ccnc(Br)c3)n[nH]2)cc1 [Compound 44, 4-[3-(2-bromopyridin-4-yl)-1H-1,2,4-triazol-5-yl]-N,N-dimethylaniline]
0.2 nM | CN(C)c1ccc(-c2nc(-c3ccnc(Br)c3)c[nH]2)cc1 [Compound 45, 4-[4-(2-bromopyridin-4-yl)-1H-imidazol-2-yl]-N,N-dimethylaniline]
97 nM | Cc1cc(-c2cc(-c3ccc4c(c3)OCO4)n[nH]2)cc(Br)n1 [Compound 47, 4-[3-(1,3-benzodioxol-5-yl)-1H-pyrazol-5-yl]-2-bromo-6-methylpyridine]
59 nM | Clc1cc(-c2cc(-c3ccc4c(c3)OCO4)n[nH]2)c(Cl)nn1 [Compound 48, 4-[5-(1,3-benzodioxol-5-yl)-1H-pyrazol-3-yl]-3,6-dichloropyridazine]
61 nM | Fc1cc(-c2cc(-c3ccc(N4CCNCC4)cc3)n[nH]2)ccn1 [Compound 49, 1-{4-[5-(2-fluoropyridin-4-yl)-1H-pyrazol-3-yl]phenyl}piperazine]
0.9 nM | FCCN1CCN(c2ccc(-c3cc(-c4ccnc(Cl)c4)[nH]n3)cc2)CC1 [Compound 50, 1-{4-[5-(2-chloropyridin-4-yl)-1H-pyrazol-3-yl]phenyl}-4-(2-fluoroethyl)piperazine]
2.7 nM | COCCN1CCN(c2ccc(-c3cc(-c4ccnc(Br)c4)[nH]n3)cc2)CC1 [Compound 51, 1-{4-[5-(2-bromopyridin-4-yl)-1H-pyrazol-3-yl]phenyl}-4-(2-methoxyethyl)piperazine]
3.1 nM | FC1CCN(c2ccc(-c3cc(-c4ccnc(Br)c4)[nH]n3)cc2)CC1 [Compound 52, 2-bromo-4-{3-[4-(4-fluoropiperidin-1-yl)phenyl]-1H-pyrazol-5-yl}pyridine]
0.8 nM | CN(C)c1ccc(-c2cc(-c3ccnc(Cl)c3)[nH]n2)cc1 [Compound 53, 4-[5-(2-chloropyridin-4-yl)-1H-pyrazol-3-yl]-N,N-dimethylaniline]
8.4 nM | Fc1ccnc(-c2cc(-c3ccc4c(c3)OCO4)n[nH]2)c1 [Compound 54, 2-[3-(1,3-benzodioxol-5-yl)-1H-pyrazol-5-yl]-4-fluoropyridine]
1.2 nM | FC1CN(c2ccc(-c3cc(-c4ccnc(Cl)c4)[nH]n3)cc2)C1 [Compound 55, 2-chloro-4-{3-[4-(3-fluoroazetidin-1-yl)phenyl]-1H-pyrazol-5-yl}pyridine]

Compound | Ki
6-[5-(2-bromopyridin-4-yl)-1H-pyrazol-3-yl]-1,3-dioxolo[4,5-b]pyridine [Compound 32] | 18 nM
